Test system: maternal HIV+ sera (antibodies)
Test: RIA / ELISA binding of maternal HIV+ sera to gp120 and gp41 peptides (Example 3)
Set-up: species or system human
Procedure: Radioimmunoassay (RIA) and enzyme-linked immunosorbent assay (ELISA) were performed by standard methodologies [E. Engvall, Meth. Immunol., 70:419-439 (1980); S. K. Pierce et al, J. Exp. Med., 144:1254-1262 (1976)]. Peptides were dissolved in 0.05M carbonate-bicarbonate buffer (pH 9.6) at a concentration of 10 μg/ml. Fifty μl (500 ng) of the peptides were immobilized in 96 well polyvinylchloride plates (Dynatech Laboratories, Inc.) overnight at 4° C. Plates were washed and non-specific sites were blocked with PBS containing 1% BSA overnight at 4° C.
Dilutions of HIV positive maternal sera were made in blocking buffer at dilutions of 1:50 and 1:500 and incubated in peptide coated plates overnight at 4° C. Plates were washed with PBS and incubated with 75,000 cpm of ^125 I-labelled goat anti-human IgG. The antibody was iodinated by a chloramine T method [W. V. Williams et al, Proc. Natl. Acad. Sci. USA, 85:6488-6492 (1988)]. Plates were washed, dried and counted in a gamma counter to measure specific binding. Normal human serum (i.e., HIV seronegative) was used as a control.
Alternatively, ELISA assays were performed in polystyrene plates (Dynatech Laboratories, Inc) in which 0.05% Tween 20 (Sigma Chemical Co.) was included in the washing, blocking and dilution buffers. The secondary antibody used was goat […] Ig conjugated to horseradish peroxidase (HRP) (Sigma Chemical Co). The substrate used for color development was 3,3',5,5' tetramethyl-benzidine dihydrochloride (TMB) (Sigma Chemical Co). Absorbance of samples was measured in a Dynatech MR5000 (Dynatech Laboratories, Inc.) plate reader and expressed as an optical density at wavelength of 450 nm (OD450).
The following key is used for the designation of specific binding of the maternal sera samples to the peptides: The minus sign, -, is equivalent to the specific OD450 or cpm of sera sample binding to peptide divided by the specific OD450 or cpm of NHS sample binding to peptide, which value is less than 2. The plus sign, +, is equivalent to the specific OD450 or cpm of sera sample binding to peptide divided by the specific OD450 or cpm of NHS sample binding to peptide, which value is between 2 to 3.
Specific binding is defined as the difference between the OD450 or cpm of sera to wells with peptide and the OD450 or cpm of sera to wells without peptide.
Comparisons of number of peptides which bound maternal serum samples were made between the transmission group and the nontransmission group. The data was analyzed using the unpaired student's test. For the determination of differences in the binding of specific peptides between transmission and non-transmission groups, the Spearman's rank-order correlation test was performed.

[1] = Serum No. 1, Non-Transmission Group
[2] = Serum No. 2, Non-Transmission Group
[3] = Serum No. 3, Non-Transmission Group
[4] = Serum No. 4, Transmission Group
[5] = Serum No. 5, Transmission Group
[6] = Serum No. 6, Non-Transmission Group
[7] = Serum No. 7, Non-Transmission Group
[8] = Serum No. 8, Non-Transmission Group
[9] = Serum No. 9, Non-Transmission Group
[10] = Serum No. 10, Transmission Group
[11] = Serum No. 11, Non-Transmission Group
[12] = Serum No. 12, Non-Transmission Group
[13] = Serum No. 13, Transmission Group
[14] = Serum No. 14, Transmission Group
[15] = Serum No. 15, Transmission Group
[16] = Serum No. 16, Non-Transmission Group
[17] = Serum No. 17, Non-Transmission Group
[18] = Serum No. 18, Non-Transmission Group
[19] = Serum No. 19, Transmission Group
[20] = Serum No. 20, Non-Transmission Group

CTRPNNNTRKSIRIQ [Peptide 106]
Percentage of sera samples demonstrating binding to peptide, non-transmitter (Non-transmitter group, n = 13): 23.0%
Binding of maternal HIV+ serum to peptide (sera/NHS ratio) [1]: - (specific OD450 or cpm of sera sample binding to peptide divided by the specific OD450 or cpm of NHS sample binding to peptide, which value is less than 2)
Binding of maternal HIV+ serum to peptide (sera/NHS ratio) [2]: - (specific OD450 or cpm of sera sample binding to peptide divided by the specific OD450 or cpm of NHS sample binding to peptide, which value is less than 2)
Binding of maternal HIV+ serum to peptide (sera/NHS ratio) [3]: - (specific OD450 or cpm of sera sample binding to peptide divided by the specific OD450 or cpm of NHS sample binding to peptide, which value is less than 2)
Binding of maternal HIV+ serum to peptide (sera/NHS ratio) [4]: - (specific OD450 or cpm of sera sample binding to peptide divided by the specific OD450 or cpm of NHS sample binding to peptide, which value is less than 2)
Binding of maternal HIV+ serum to peptide (sera/NHS ratio) [5]: - (specific OD450 or cpm of sera sample binding to peptide divided by the specific OD450 or cpm of NHS sample binding to peptide, which value is less than 2)
Binding of maternal HIV+ serum to peptide (sera/NHS ratio) [6]: - (specific OD450 or cpm of sera sample binding to peptide divided by the specific OD450 or cpm of NHS sample binding to peptide, which value is less than 2)
Binding of maternal HIV+ serum to peptide (sera/NHS ratio) [7]: - (specific OD450 or cpm of sera sample binding to peptide divided by the specific OD450 or cpm of NHS sample binding to peptide, which value is less than 2)
Binding of maternal HIV+ serum to peptide (sera/NHS ratio) [8]: - (specific OD450 or cpm of sera sample binding to peptide divided by the specific OD450 or cpm of NHS sample binding to peptide, which value is less than 2)
Binding of maternal HIV+ serum to peptide (sera/NHS ratio) [9]: - (specific OD450 or cpm of sera sample binding to peptide divided by the specific OD450 or cpm of NHS sample binding to peptide, which value is less than 2)
Binding of maternal HIV+ serum to peptide (sera/NHS ratio) [10]: - (specific OD450 or cpm of sera sample binding to peptide divided by the specific OD450 or cpm of NHS sample binding to peptide, which value is less than 2)
Binding of maternal HIV+ serum to peptide (sera/NHS ratio) [11]: - (specific OD450 or cpm of sera sample binding to peptide divided by the specific OD450 or cpm of NHS sample binding to peptide, which value is less than 2)
Binding of maternal HIV+ serum to peptide (sera/NHS ratio) [12]: - (specific OD450 or cpm of sera sample binding to peptide divided by the specific OD450 or cpm of NHS sample binding to peptide, which value is less than 2)
Binding of maternal HIV+ serum to peptide (sera/NHS ratio) [13]: ++ (which value is greater than 3)
Binding of maternal HIV+ serum to peptide (sera/NHS ratio) [14]: ++ (which value is greater than 3)
Binding of maternal HIV+ serum to peptide (sera/NHS ratio) [15]: ++ (which value is greater than 3)
Binding of maternal HIV+ serum to peptide (sera/NHS ratio) [16]: + (which value is between 2 to 3)
Binding of maternal HIV+ serum to peptide (sera/NHS ratio) [17]: ++ (which value is greater than 3)
Binding of maternal HIV+ serum to peptide (sera/NHS ratio) [18]: - (specific OD450 or cpm of sera sample binding to peptide divided by the specific OD450 or cpm of NHS sample binding to peptide, which value is less than 2)
Binding of maternal HIV+ serum to peptide (sera/NHS ratio) [19]: - (specific OD450 or cpm of sera sample binding to peptide divided by the specific OD450 or cpm of NHS sample binding to peptide, which value is less than 2)
Binding of maternal HIV+ serum to peptide (sera/NHS ratio) [20]: + (which value is between 2 to 3)
Percentage of sera samples demonstrating binding to peptide, transmitter (Transmitter / transmission group, n = 7): 42.9%
Percent of the maternal serum samples that bound to the peptide (all 20 samples): 30%

GYSPLSFQTHPIPR [Peptide 128]
Binding of maternal HIV+ serum to peptide (sera/NHS ratio) [1]: - (specific OD450 or cpm of sera sample binding to peptide divided by the specific OD450 or cpm of NHS sample binding to peptide, which value is less than 2)
Binding of maternal HIV+ serum to peptide (sera/NHS ratio) [2]: - (specific OD450 or cpm of sera sample binding to peptide divided by the specific OD450 or cpm of NHS sample binding to peptide, which value is less than 2)
Binding of maternal HIV+ serum to peptide (sera/NHS ratio) [3]: - (specific OD450 or cpm of sera sample binding to peptide divided by the specific OD450 or cpm of NHS sample binding to peptide, which value is less than 2)
Binding of maternal HIV+ serum to peptide (sera/NHS ratio) [4]: - (specific OD450 or cpm of sera sample binding to peptide divided by the specific OD450 or cpm of NHS sample binding to peptide, which value is less than 2)
Binding of maternal HIV+ serum to peptide (sera/NHS ratio) [5]: - (specific OD450 or cpm of sera sample binding to peptide divided by the specific OD450 or cpm of NHS sample binding to peptide, which value is less than 2)
Binding of maternal HIV+ serum to peptide (sera/NHS ratio) [6]: - (specific OD450 or cpm of sera sample binding to peptide divided by the specific OD450 or cpm of NHS sample binding to peptide, which value is less than 2)
Binding of maternal HIV+ serum to peptide (sera/NHS ratio) [7]: - (specific OD450 or cpm of sera sample binding to peptide divided by the specific OD450 or cpm of NHS sample binding to peptide, which value is less than 2)
Binding of maternal HIV+ serum to peptide (sera/NHS ratio) [8]: - (specific OD450 or cpm of sera sample binding to peptide divided by the specific OD450 or cpm of NHS sample binding to peptide, which value is less than 2)
Binding of maternal HIV+ serum to peptide (sera/NHS ratio) [9]: - (specific OD450 or cpm of sera sample binding to peptide divided by the specific OD450 or cpm of NHS sample binding to peptide, which value is less than 2)
Binding of maternal HIV+ serum to peptide (sera/NHS ratio) [10]: - (specific OD450 or cpm of sera sample binding to peptide divided by the specific OD450 or cpm of NHS sample binding to peptide, which value is less than 2)
Binding of maternal HIV+ serum to peptide (sera/NHS ratio) [11]: - (specific OD450 or cpm of sera sample binding to peptide divided by the specific OD450 or cpm of NHS sample binding to peptide, which value is less than 2)
Binding of maternal HIV+ serum to peptide (sera/NHS ratio) [12]: - (specific OD450 or cpm of sera sample binding to peptide divided by the specific OD450 or cpm of NHS sample binding to peptide, which value is less than 2)
Binding of maternal HIV+ serum to peptide (sera/NHS ratio) [13]: - (specific OD450 or cpm of sera sample binding to peptide divided by the specific OD450 or cpm of NHS sample binding to peptide, which value is less than 2)
Binding of maternal HIV+ serum to peptide (sera/NHS ratio) [14]: - (specific OD450 or cpm of sera sample binding to peptide divided by the specific OD450 or cpm of NHS sample binding to peptide, which value is less than 2)
Binding of maternal HIV+ serum to peptide (sera/NHS ratio) [15]: - (specific OD450 or cpm of sera sample binding to peptide divided by the specific OD450 or cpm of NHS sample binding to peptide, which value is less than 2)
Binding of maternal HIV+ serum to peptide (sera/NHS ratio) [16]: - (specific OD450 or cpm of sera sample binding to peptide divided by the specific OD450 or cpm of NHS sample binding to peptide, which value is less than 2)
Binding of maternal HIV+ serum to peptide (sera/NHS ratio) [17]: - (specific OD450 or cpm of sera sample binding to peptide divided by the specific OD450 or cpm of NHS sample binding to peptide, which value is less than 2)
Binding of maternal HIV+ serum to peptide (sera/NHS ratio) [18]: - (specific OD450 or cpm of sera sample binding to peptide divided by the specific OD450 or cpm of NHS sample binding to peptide, which value is less than 2)
Binding of maternal HIV+ serum to peptide (sera/NHS ratio) [19]: - (specific OD450 or cpm of sera sample binding to peptide divided by the specific OD450 or cpm of NHS sample binding to peptide, which value is less than 2)
Binding of maternal HIV+ serum to peptide (sera/NHS ratio) [20]: - (specific OD450 or cpm of sera sample binding to peptide divided by the specific OD450 or cpm of NHS sample binding to peptide, which value is less than 2)

— patent US5556744A, “Methods and compositions for diagnosing and treating certain HIV infected patients” (The Trustees of the University of Pennsylvania, priority 1994, dated 1996)
